In patent publication US12692274B2, “Tetrahydroisoquinoline derivatives for the treatment of red blood disorders and inflammatory diseases” (Sanofi, priority 2020, dated 2026):
Several values for one entry are separate records, joined by “and”; a condition that tells them apart may be missing. Equal entries are not always repeated.

Legend:
[1] = test system: NQO1 activation in BEAS-2B cells; assay: BEAS-2B cellular MTT assay of NQO1 activation, 0% HSA; type: cell-based
Procedure, shortened: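 For the 0% HSA condition, cells were seeded into collagen plates in HSA-free medium. Culture was BEAS-2B in BEBM plus BEGM SingleQuots lacking GA-1000, held under 70% confluence, at a seeding density reaching 95-100% confluence by 48 h.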

[2] = test system: NQO1 activation in BEAS-2B cells; assay: BEAS-2B cellular MTT assay of NQO1 activation, 0.3% HSA; type: cell-based
Procedure, shortened: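 MTT read-out in BEAS-2B cells grown in BEBM with SingleQuots, no GA-1000, kept below 70% confluence; plates coated with collagen, with 0.3% or 0% HSA medium, seeded to 95-100% confluency at 48 h, 37 °C, 5% CO2.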

[3] = biological target: HIS-Keap1 full length / Biotin-Nrf2 (16-mer) (Homo sapiens, UniProt Q14145); assay: biochemical
Chain of HIS-Keap1 full length / Biotin-Nrf2 (16-mer) (Q14145 whole entry): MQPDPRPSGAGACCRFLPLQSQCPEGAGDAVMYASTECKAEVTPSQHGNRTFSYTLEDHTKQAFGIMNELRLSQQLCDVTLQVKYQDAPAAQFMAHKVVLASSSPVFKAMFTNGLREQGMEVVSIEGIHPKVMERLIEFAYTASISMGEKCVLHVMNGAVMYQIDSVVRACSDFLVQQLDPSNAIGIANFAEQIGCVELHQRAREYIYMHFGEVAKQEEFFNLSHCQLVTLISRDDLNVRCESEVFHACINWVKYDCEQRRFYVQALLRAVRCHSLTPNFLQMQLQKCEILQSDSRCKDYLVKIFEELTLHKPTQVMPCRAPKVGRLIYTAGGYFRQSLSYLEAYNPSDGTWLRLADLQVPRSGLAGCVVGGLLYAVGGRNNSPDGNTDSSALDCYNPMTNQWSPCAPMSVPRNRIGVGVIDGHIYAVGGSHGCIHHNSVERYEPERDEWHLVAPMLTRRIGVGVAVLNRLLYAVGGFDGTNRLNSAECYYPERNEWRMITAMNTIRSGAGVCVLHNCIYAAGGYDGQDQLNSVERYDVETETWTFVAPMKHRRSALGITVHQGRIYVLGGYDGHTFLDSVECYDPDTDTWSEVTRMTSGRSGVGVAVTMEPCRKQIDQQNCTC

[4] = Homo sapiens, Serum Free W, read-out: BEAS EC50 (nM) Serum Free W
[5] = Serum Free W, read-out: BEAS EC50 (nM) Serum Free W
[6] = BEAS+ W, read-out: BEAS+ W EC50
[7] = Homo sapiens, BEAS+ W, read-out: BEAS+ W EC50
[8] = Homo sapiens, serum free, read-out: BEAS EC50 (nM) serum free
[9] = serum free, read-out: BEAS EC50 (nM) serum free
[10] = Homo sapiens, BEAS+, read-out: BEAS+ EC50

Compound | EC50 [1, 4] [nM] | EC50 [1, 5] [nM] | EC50 [2, 6] | EC50 [2, 7] [µM] | IC50 [3] | EC50 [1, 8] [nM] | EC50 [1, 9] [nM] | EC50 [2, 10] [µM] | EC50 ([2]; BEAS+, read-out: BEAS+ EC50) [µM]
Cc1c2ccc3c1nnn3CCCOCCc1ccc(c(F)c1)C(=O)N1CCc3ccc(cc3C1)[C@H]2CC(=O)O [Compound 357] | > 1000 | 969 | 1.71 µM | 1.94 | 0.0114 µM and 0.011 µM |  |  |  | 
Cc1c2ccc3c1nnn3CCCCc1ccc3c(cn(C)c3c1)C(=O)N1CCc3ccc(cc3C1)C2CC(=O)O (stereo not shown) [Compound 359] | > 1000 |  |  | > 10 | 0.0074 µM and 0.0081 µM |  |  |  | 
Cc1c2ccc3c1nnn3C/C=C/COCc1ccc(c(F)c1)C(=O)N1CCc3ccc(cc3C1)C2CC(=O)OCCO (stereo not shown) [Compound 361] | > 1000 |  | 1.28 µM | 1.66 | 0.918 µM and 0.74 µM |  |  |  | 
Cc1c2ccc3c1nnn3CCCCCc1ccc3c(c1)c(cn3C)C(=O)N1CCc3ccc(cc3C1)C2CC(=O)O (stereo not shown) [Compound 362, 2-(5,33-dimethyl-2-oxo-1,5,15,16,17-pentazaheptacyclo[22.5.3.26,9.118,22.03,7.015,19.027,31]pentatriaconta-3,6,8,16,18(33),19,21,24(32),25,27(31),34-undecaen-23-yl)acetic Acid] |  |  |  |  | 0.05 µM and 0.0473 µM | 3250 | 3760 | > 10 | 
Cc1c2ccc3c1nnn3CCOCCCc1ccc(c(F)c1)C(=O)N1CCc3ccc(cc3C1)[C@@H]2CC(=O)O [Compound 364] | 56 | 68.3 | 0.0926 µM | 0.0988 | 0.0017 µM and 0.0016 µM |  |  |  | 
Cc1c2ccc3c1nnn3CCOC/C=C/c1ccc(c(F)c1)C(=O)N1CCc3ccc(cc3C1)C2CC(=O)O (stereo not shown) [Compound 365] | 90 | 171 | 0.214 µM | 0.188 | 0.0034 µM and 0.0036 µM |  |  |  | 
Cc1c2ccc3c1nnn3CCCOCCOc1cc(F)c(c(F)c1)C(=O)N1CCc3ccc(cc3C1)[C@@H]2[C@H](C)C(=O)O [Compound 366] |  |  |  |  | 0.0056 µM and 0.0053 µM | 580 | 442 | 1.07 | 1.18
Cc1c2ccc3c1nnn3CCCOCCOc1cc(F)c(c(F)c1)C(=O)N1CCc3ccc(cc3C1)[C@@H]2[C@@H](C)C(=O)O [Compound 367] |  |  |  |  | 0.0004 µM | 10.3 | 12.5 | 0.0122 | 0.0123
Cc1c2ccc3c1nnn3CCCOCCOc1ccc(c(F)c1)C(=O)N1CCc3ccc(cc3C1)[C@@H]2[C@H](C)C(=O)O [Compound 369] |  |  |  |  | 0.0132 µM and 0.014 µM | 2010 | 1930 | 2.08 | 2.23
Cc1cc2ccc1C(=O)N1CCc3ccc(cc3C1)[C@H]([C@H](C)C(=O)O)c1ccc3c(nnn3CCCOCCO2)c1C [Compound 370] |  |  |  |  | 0.0043 µM and 0.0042 µM | 1480 | 1350 | 1.64 | 1.71
Cc1cc2ccc1C(=O)N1CCc3ccc(cc3C1)[C@H]([C@@H](C)C(=O)O)c1ccc3c(nnn3CCCOCCO2)c1C [Compound 371] |  |  |  |  | 0.0016 µM and 0.0017 µM | 21.3 | 22.1 | 0.0236 | 0.0288
Cc1c2ccc3c1nnn3CCCCCn1cc(c3ccccc31)C(=O)N1CCc3ccc(cc3C1)C2CC(=O)O (stereo not shown) [Compound 372] |  |  |  |  | 0.0002 µM | 994 | 1020 | 1.63 | 0.861
Cc1c2ccc3c1nnn3CCCCCCn1cc(c3ccccc31)C(=O)N1CCc3ccc(cc3C1)C2CC(=O)O (stereo not shown) [Compound 373] |  |  |  |  | 0.0036 µM and 0.0039 µM | 2070 | 2030 | 2.03 | 3.14
Cc1c2ccc3c1nnn3CC/C=C/Cc1ccc(c(F)c1)C(=O)N1CCc3ccc(cc3C1)C2C(C)C(=O)O (stereo not shown) [Compound 376] | 2.1 | 2.3 | 0.0045 µM and 0.0055 µM | 0.0039 | 0.0013 µM and 0.0014 µM |  |  |  | 
Cc1c2ccc3c1nnn3CCCCCCOc1ncc(cn1)C(=O)N1CCc3ccc(cc3C1)C2CC(=O)O (stereo not shown) [Compound 377] |  |  |  |  | 0.0057 µM and 0.0058 µM | 2940 | 2650 | 3.17 | 3.21
Cc1c2ccc3c1nnn3CCCCCCOc1ccc(cn1)C(=O)N1CCc3ccc(cc3C1)C2CC(=O)O (stereo not shown) [Compound 378] |  |  |  |  | 0.0077 µM and 0.008 µM | 133 | 139 | 0.213 | 0.155
Cc1c2ccc3c1nnn3CCCCCCOc1cnc(cn1)C(=O)N1CCc3ccc(cc3C1)C2CC(=O)O (stereo not shown) [Compound 379, 2-(34-methyl-22-oxo-17-oxa-8,9,10,19,23,32-hexazahexacyclo[21.5.3.218,21.13,7.06,10.026,30]tetratriaconta-1(29),3,5,7(34),8,18,20,26(30),27,32-decaen-2-yl)acetic Acid] |  |  |  |  | 0.0052 µM and 0.0054 µM | 158 | 147 | 0.206 | 0.193
Cc1c2ccc3c1nnn3CCCCCCOc1ccc(nn1)C(=O)N1CCc3ccc(cc3C1)C2CC(=O)O (stereo not shown) [Compound 380] |  |  |  |  | 0.0059 µM and 0.0054 µM | 1460 | 1390 | 1.23 | 1.44
Cc1c2ccc3c1nnn3CCCOCCOc1ccc(c(F)c1)C(=O)N1CCc3ccc(cc3C1)C2CC(=O)O (stereo not shown) [Compound 383] |  |  |  |  | 0.0009 µM | 179 | 162 | 0.196 | 0.187
